Values of other authors, collected in PMC9377340 (Chemical biology & drug design, 2022).
Where “and” joins values, the source holds several entries; their conditions need not be identical. Equal entries are not always repeated.

Biological target: human FXIa (Homo sapiens, UniProt P03951)
Settings: ref Kar et al., 2020

Sequence of human FXIa (P03951 388-625 limits assumed): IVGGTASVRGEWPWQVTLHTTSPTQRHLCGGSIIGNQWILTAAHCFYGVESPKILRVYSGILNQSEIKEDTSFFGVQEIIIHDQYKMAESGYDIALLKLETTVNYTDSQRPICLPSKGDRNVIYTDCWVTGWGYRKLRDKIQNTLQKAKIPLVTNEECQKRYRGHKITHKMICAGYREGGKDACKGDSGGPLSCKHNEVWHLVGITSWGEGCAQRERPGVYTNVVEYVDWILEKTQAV
Sequence of human FXIa (P03951 19-387 limits assumed): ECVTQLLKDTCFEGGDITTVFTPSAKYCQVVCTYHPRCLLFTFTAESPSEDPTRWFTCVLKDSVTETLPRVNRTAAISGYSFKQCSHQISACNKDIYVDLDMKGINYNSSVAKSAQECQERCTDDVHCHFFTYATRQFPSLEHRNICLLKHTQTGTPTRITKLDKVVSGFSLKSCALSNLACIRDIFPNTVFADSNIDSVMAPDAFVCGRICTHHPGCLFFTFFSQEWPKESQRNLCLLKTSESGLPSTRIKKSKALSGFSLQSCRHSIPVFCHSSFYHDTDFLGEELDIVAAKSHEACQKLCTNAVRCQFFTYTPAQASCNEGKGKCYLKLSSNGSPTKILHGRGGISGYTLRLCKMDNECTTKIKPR

benzyl tetraphosphonate [BTP]
IC50 (read-out: IC50, FXIa inhibition): ~7.4 µM and 7.4 µM
HS (Hill slope), FXIa inhibition: 1.9 ± 0.5
ΔY (efficacy), FXIa inhibition: 68.0 ± 3.7%
